From ChEMBL document CHEMBL2016563, “Synthesis of new bergenin derivatives as potent inhibitors of inflammatory mediators NO and TNF-α” (Bioorg Med Chem Lett, 2012)

Legend:
[1] = system: THP-1; assay: Induction of LPS-B-induced TNF-alpha production in human THP1 cells at 60 uM after 4 hrs; format: functional
[2] = system: NIH3T3; assay: Cytotoxicity against mouse 3T3 cells at 100 uM after 72 hrs by MTT assay; format: cell-based; details: nih3t3, 72 h
[3] = system: J774.2; assay: Antiinflammatory activity in mouse J774.2 cells assessed as inhibition of LPS-induced NO production at 60 uM after 48 hrs by spectrophotometry; format: functional; details: J774.2, 48 h
[4] = Antiinflammatory activity in human neutrophils assessed as inhibition of opsonized zymosan A-mediated superoxide anions production by WST-1 based respiratory burst assay; format: functional, cell-based, Neutrophil
[5] = system: THP-1; assay: Antiinflammatory activity in human THP1 cells assessed as inhibition of LPS-B-induced TNF-alpha production at 60 uM after 4 hrs; format: functional; details: THP-1, 4 h
[6] = system: J774.2; assay: Induction of LPS-induced NO production in mouse J774.2 cells at 60 uM after 48 hrs by spectrophotometry; format: functional
[7] = Homo sapiens, Neutrophil, read-out: IC50

SMILES | Activity [1] | Activity [2] | inhibition at 60 µM [3] | IC50 [4, 7] | inhibition at 60 µM [5] | IC50 ([4]; neutrophil) | Activity [6]
C#CCOc1cc2c(c(OCC#C)c1OC)[C@@H]1O[C@H](CO)[C@@H](O)[C@H](O)[C@H]1OC2=O | 27.56% | Non-toxic | 19.4% | 382 µM | – | – | –
COc1c(OCC(=O)OC(C)(C)C)cc2c(c1OCC(=O)OC(C)(C)C)[C@@H]1O[C@H](CO)[C@@H](O)[C@H](O)[C@H]1OC2=O | – | Non-toxic | 16.3% | 482 µM | 9.6% | – | –
COc1ccc2c(c1)c(CC(=O)O)c(C)n2C(=O)c1ccc(Cl)cc1 [INDOMETHACIN] | – | – | – | 271 µM | – | – | –
CCOc1cc2c(c(OCC)c1OC)[C@@H]1O[C@H](CO)[C@@H](O)[C@H](O)[C@H]1OC2=O | – | Non-toxic | 54.5% | 322 µM | 98.6% | – | –
CCCOc1cc2c(c(OCCC)c1OC)[C@@H]1O[C@H](CO)[C@@H](O)[C@H](O)[C@H]1OC2=O | 5.57% | Non-toxic | 8.9% | – | – | Not Active | –
COc1cc2c(c(OC)c1OC)[C@@H]1O[C@H](CO)[C@@H](O)[C@H](O)[C@H]1OC2=O | – | Non-toxic | 47.6% | – | 0.44% | Not Active | –
CCCCOc1cc2c(c(OCCCC)c1OC)[C@@H]1O[C@H](CO)[C@@H](O)[C@H](O)[C@H]1OC2=O | – | Non-toxic | 31.2% | 403 µM | 26.3% | – | –
COc1c(OC(C)C)cc2c(c1OC(C)C)[C@@H]1O[C@H](CO)[C@@H](O)[C@H](O)[C@H]1OC2=O | 8.44% | Non-toxic | – | 303 µM | – | – | 5.5%
CCOC(=O)COc1cc2c(c(OCC(=O)OCC)c1OC)[C@@H]1O[C@H](CO)[C@@H](O)[C@H](O)[C@H]1OC2=O | – | Non-toxic | 86.8% | 253 µM | 96.2% | – | –
CCCCCCCCOc1cc2c(c(OCCCCCCCC)c1OC)[C@@H]1O[C@H](CO)[C@@H](O)[C@H](O)[C@H]1OC2=O | 3.4% | Non-toxic | 18% | 222 µM | – | – | –
COc1c(OCC#N)cc2c(c1OCC#N)[C@@H]1O[C@H](CO)[C@@H](O)[C@H](O)[C@H]1OC2=O | 26.21% | Non-toxic | 13.3% | 416 µM | – | – | –
C=CCCOc1cc2c(c(OCCC=C)c1OC)[C@@H]1O[C@H](CO)[C@@H](O)[C@H](O)[C@H]1OC2=O | 13.27% | Non-toxic | 3.6% | 288 µM | – | – | –
COc1c(O)cc2c(c1O)[C@@H]1O[C@H](CO)[C@@H](O)[C@H](O)[C@H]1OC2=O [BERGENIN] | 7.91% | Non-toxic | 4.3% | 303 µM | – | – | –
CCCCCOc1cc2c(c(OCCCCC)c1OC)[C@@H]1O[C@H](CO)[C@@H](O)[C@H](O)[C@H]1OC2=O | – | Non-toxic | 3.4% | 296 µM | 20.9% | – | –
C=CCOc1cc2c(c(OCC=C)c1OC)[C@@H]1O[C@H](CO)[C@@H](O)[C@H](O)[C@H]1OC2=O | 18.41% | Non-toxic | 5.5% | 333 µM | – | – | –
CCCCCCCOc1cc2c(c(OCCCCCCC)c1OC)[C@@H]1O[C@H](CO)[C@@H](O)[C@H](O)[C@H]1OC2=O | – | Non-toxic | 18% | 213 µM | 28.7% | – | –
C=CCCCCOc1cc2c(c(OCCCCC=C)c1OC)[C@@H]1O[C@H](CO)[C@@H](O)[C@H](O)[C@H]1OC2=O | – | Non-toxic | 9.4% | 270 µM | 17.7% | – | –
CNC(=N)NCCC[C@H](N)C(=O)O [TILARGININE ACETATE] | – | – | 40% | – | – | – | –
